One substance from article PMC9367001 (Journal of Chemical Theory and Computation, 2022) can be followed below.

For the assay, the target named is IN05 HA trimer. The class given is binding, influenza A/Indonesia/5/2005 (H5 subtype).

For α2,6-linked sialyl lactosamine [6-SLN], the “KD,MST” value is “no detectable binding”.
